One assay concerns the target α4β1 integrin (Homo sapiens (Human), UniProt P05556+P13612). The assay is described as follows: Integrin Adhesion Assay: Protocol 2 (VCAM-coated plate, Jurkat cells, CellTiter GLO readout). The assay is classed as cell-based. The conditions noted are these: determined by at least one of the assays described (protocol not specified). As to the method:
α4β7 and α4β1 inhibition was evaluated in vitro using at least one of the following procedures:
Integrin Adhesion Assay: Protocol 2
VCAM (R&D Systems, 0.1 ug) was diluted in 50 μL PBS, added to each well of an opaque ELISA plate (Thermo), and incubated overnight at 4° C. Coated plates were washed once with PBS and then blocked with 200 μL of assay buffer (10 mM HEPES, 150 mM NaCl, 1 mM MnCl2, 0.1 mM CaCl2), 1% BSA) for 1 hour at 37° C. and 5% CO2. After incubation, buffer was aspirated from the plates and 50 μL of fresh assay buffer was added. Compounds were added by compounds dispenser (Tecan) and DMSO concentration was normalized to 1% across each plate. 50 μL of Jurkat cells (2×10^6 per mL) were added to each well and the plates were incubated for 1 hour at 37° C. and 5% CO2. After incubation, plates were allowed to cool to RT for 10 minutes before being washed four times in assay buffer by an automated plate washer (BioTek). After washing, 100 μL of a 1:1 mixture of assay buffer and CellTiter GLO 2.0 reagent (Promega) were added to each well. Plates were mixed for 2 minutes at 1000 rpm and then allowed to incubate an additional 10 minutes before reading out luminescence on a Tecan Spark plate reader. Raw data was converted to percent inhibition based on DMSO only and control compound wells, and curves were analyzed by 4-parameter fit within Dotmatics software.
In general terms: ATP-based viability assays read luminescence as a measure of living cells.

A further assay has as its target α4β7 integrin (Homo sapiens (Human), UniProt P13612+P26010). The assay is described as follows: Integrin Adhesion Assay: Protocol 1 (MAdCAM-coated plate, RPMI-8866 cells, CellTiter GLO readout). Type of assay: cell-based. The note with it: integrin adhesion assay; determined by at least one of the assays described (protocol not specified). In outline:
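RPMI-8866 cells (2×10^6 per mL) added with compounds (1% DMSO) to MAdCAM-coated wells blocked in HEPES/NaCl buffer with 1 mM MnCl2, 0.1 mM CaCl2, 1% BSA; 1 h at 37° C, 5% CO2. After four washes, bound cells read by CellTiter GLO luminescence; % inhibition vs DMSO and control wells, 4-parameter fit.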

Experimental findings from patent publication US20250313535A1, “ALPHA 4 BETA 7 INTEGRIN MODULATORS AND USES THEREOF” (DICE MOLECULES SV, INC., priority 2022, published 2025) are described below.

The structures appear in SMILES notation.

α4β7 integrin, sequence (P13612 34-1032): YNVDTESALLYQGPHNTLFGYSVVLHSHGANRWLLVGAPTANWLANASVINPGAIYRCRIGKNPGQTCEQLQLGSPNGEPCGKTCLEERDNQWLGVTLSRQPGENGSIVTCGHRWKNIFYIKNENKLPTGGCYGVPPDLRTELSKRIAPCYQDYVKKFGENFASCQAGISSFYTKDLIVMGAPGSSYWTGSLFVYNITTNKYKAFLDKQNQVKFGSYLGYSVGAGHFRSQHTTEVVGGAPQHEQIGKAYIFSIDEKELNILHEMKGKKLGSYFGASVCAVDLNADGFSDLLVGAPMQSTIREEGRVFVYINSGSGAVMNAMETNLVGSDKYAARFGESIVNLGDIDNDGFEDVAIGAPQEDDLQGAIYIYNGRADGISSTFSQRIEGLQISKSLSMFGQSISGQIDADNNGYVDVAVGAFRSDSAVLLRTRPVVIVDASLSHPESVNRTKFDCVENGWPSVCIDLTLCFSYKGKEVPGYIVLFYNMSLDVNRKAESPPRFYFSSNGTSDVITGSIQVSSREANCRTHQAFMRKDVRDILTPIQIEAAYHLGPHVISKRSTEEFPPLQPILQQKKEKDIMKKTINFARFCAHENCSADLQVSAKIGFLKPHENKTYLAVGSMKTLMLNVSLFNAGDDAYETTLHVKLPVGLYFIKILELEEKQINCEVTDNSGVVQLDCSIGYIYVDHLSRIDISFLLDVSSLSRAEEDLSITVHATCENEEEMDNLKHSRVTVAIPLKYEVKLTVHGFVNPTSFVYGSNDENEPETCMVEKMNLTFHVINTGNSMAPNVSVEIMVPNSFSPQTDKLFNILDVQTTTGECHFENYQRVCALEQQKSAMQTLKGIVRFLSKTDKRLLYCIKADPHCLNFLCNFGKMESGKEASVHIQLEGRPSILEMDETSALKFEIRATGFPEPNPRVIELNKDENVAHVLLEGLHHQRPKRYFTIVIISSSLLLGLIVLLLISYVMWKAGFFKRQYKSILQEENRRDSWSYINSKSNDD
α4β7 integrin, sequence (P26010 20-798): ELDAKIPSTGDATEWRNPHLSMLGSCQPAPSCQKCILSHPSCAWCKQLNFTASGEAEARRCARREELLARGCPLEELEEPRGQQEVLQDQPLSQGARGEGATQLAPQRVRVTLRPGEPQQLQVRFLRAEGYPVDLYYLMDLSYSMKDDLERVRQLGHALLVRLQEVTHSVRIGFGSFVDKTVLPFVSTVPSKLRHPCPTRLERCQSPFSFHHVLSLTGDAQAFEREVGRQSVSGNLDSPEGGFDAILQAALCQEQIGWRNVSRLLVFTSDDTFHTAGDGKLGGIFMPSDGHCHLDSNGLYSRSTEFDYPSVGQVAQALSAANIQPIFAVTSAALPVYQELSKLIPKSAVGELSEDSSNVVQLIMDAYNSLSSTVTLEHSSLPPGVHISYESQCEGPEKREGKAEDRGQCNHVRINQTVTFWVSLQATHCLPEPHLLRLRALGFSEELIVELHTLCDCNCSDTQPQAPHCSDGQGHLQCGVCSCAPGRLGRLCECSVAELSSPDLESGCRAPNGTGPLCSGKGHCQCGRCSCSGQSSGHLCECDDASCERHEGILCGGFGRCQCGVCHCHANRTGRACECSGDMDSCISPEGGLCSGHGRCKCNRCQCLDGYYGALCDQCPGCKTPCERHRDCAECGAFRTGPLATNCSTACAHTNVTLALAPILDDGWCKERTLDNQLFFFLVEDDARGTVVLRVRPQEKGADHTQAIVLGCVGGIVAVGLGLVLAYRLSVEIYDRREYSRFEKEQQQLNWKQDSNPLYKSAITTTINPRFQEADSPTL
α4β1 integrin, sequence (P13612 34-1032): as the sequence (P13612 34-1032) above
α4β1 integrin, sequence (P05556 21-798): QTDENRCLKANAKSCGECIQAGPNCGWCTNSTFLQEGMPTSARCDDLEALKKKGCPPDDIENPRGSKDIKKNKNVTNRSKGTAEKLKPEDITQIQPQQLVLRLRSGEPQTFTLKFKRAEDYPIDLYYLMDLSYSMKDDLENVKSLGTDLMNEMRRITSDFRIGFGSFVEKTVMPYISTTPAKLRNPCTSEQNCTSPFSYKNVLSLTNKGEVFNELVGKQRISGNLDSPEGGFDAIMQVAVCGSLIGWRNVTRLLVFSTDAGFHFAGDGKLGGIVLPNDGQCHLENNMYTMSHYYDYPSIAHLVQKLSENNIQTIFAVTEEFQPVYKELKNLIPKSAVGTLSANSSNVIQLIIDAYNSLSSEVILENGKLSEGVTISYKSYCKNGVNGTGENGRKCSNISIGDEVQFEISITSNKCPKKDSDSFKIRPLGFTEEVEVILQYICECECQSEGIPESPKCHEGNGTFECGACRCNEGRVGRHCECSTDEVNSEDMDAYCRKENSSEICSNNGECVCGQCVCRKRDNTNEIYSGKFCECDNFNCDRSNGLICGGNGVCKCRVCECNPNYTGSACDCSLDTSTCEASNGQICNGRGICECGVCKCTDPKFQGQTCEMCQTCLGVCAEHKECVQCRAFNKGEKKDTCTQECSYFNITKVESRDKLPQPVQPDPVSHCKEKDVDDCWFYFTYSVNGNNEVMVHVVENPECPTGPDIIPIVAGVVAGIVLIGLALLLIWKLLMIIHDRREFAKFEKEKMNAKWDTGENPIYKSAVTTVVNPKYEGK

`Cn1ccc(=O)n(-c2cccc3c(C[C@H](NC(=O)C4(C)CCN(CC(F)(F)F)CC4)C(=O)O)cccc23)c1=O` [Compound 18]: the IC50 (usually the concentration needed to halve the response being measured) on α4β1 integrin was more than 1000 nM; against α4β7 integrin, 10 to 100 nM.
On to `Cn1ccc(=O)n(-c2cccc3c(C[C@H](NC(=O)c4c(F)cc(NS(=O)(=O)c5ccccc5)cc4F)C(=O)O)cccc23)c1=O` [Compound 9], for which the figures for the IC50 on α4β1 integrin and at α4β7 integrin were more than 1000 nM and less than 10 nM, respectively.
Take `Cn1ccc(=O)n(-c2cccc3c(C[C@H](NC(=O)C4(C#N)CCN(CC(F)(F)F)CC4)C(=O)O)cccc23)c1=O` [Compound 163]: the IC50 against α4β1 integrin was more than 1000 nM; against α4β7 integrin, 10 to 100 nM.
With `Cn1ccc(=O)n(-c2cccc3c(C[C@H](NC(=O)c4cc(C(=O)NCCCCN)n(-c5ccccc5)n4)C(=O)O)cccc23)c1=O` [Compound 45], the IC50 against α4β1 integrin and against α4β7 integrin was more than 1000 nM in each case.
Take `CCOCc1cc(OC)c(-c2nccc3c(C[C@H](NC(=O)c4c(F)cc(N5CCOC[C@@H]5C(F)(F)F)cc4F)C(=O)O)cccc23)c(OC)c1` [Compound 259]: the IC50 against α4β1 integrin is 100 to 1000 nM; against α4β7 integrin it was less than 10 nM.
For the compound `Cn1ccc(=O)n(-c2cccc3c(C[C@H](NC(=O)c4c(F)cc5c(ccn5C)c4F)C(=O)O)cccc23)c1=O` [Compound 27], the IC50 against α4β1 integrin was more than 1000 nM; on α4β7 integrin it was 10 to 100 nM.
With `Cn1ccc(=O)n([C@@H]2CCc3c(C[C@H](NC(=O)c4c(F)cccc4F)C(=O)O)cccc32)c1=O` (single isomer, unassigned) [Compound 281], the IC50 is more than 1000 nM against α4β1 integrin and 10 to 100 nM against α4β7 integrin.
In the case of `CN(C)CCc1cc(=O)n(-c2cccc3c(C[C@H](NC(=O)c4c(F)cccc4F)C(=O)O)cccc23)c(=O)n1C` [Compound 116], the IC50 at α4β1 integrin was more than 1000 nM; on α4β7 integrin, 10 to 100 nM.
For the compound `CC[C@@H](Nc1cc(F)c(C(=O)N[C@@H](Cc2cccc3c(-n4c(=O)ccn(C)c4=O)cccc23)C(=O)O)c(F)c1)C(F)(F)F` [Compound 112], the IC50 was more than 1000 nM on α4β1 integrin and less than 10 nM against α4β7 integrin.
For the compound `Cn1ccc(C(F)(F)F)c(-c2nccc3c(C[C@H](NC(=O)c4c(F)cc(N5CCOC[C@@H]5C(F)(F)F)cc4CN4CCCC4)C(=O)O)cccc23)c1=O` [Compound 253], the half-inhibitory concentration (IC50) against α4β1 integrin was more than 1000 nM; at α4β7 integrin, less than 10 nM.
For `Cn1ccc(C(F)(F)F)c(-c2cccc3c(C[C@H](OCc4c(F)cccc4F)C(=O)O)cccc23)c1=O` [Compound 80], the IC50 against α4β1 integrin and on α4β7 integrin was more than 1000 nM throughout.
Consider `Cn1ccc(=O)n(-c2cccc3c(C[C@H](NC(=O)c4c(F)cc(N5CCOC[C@H]5C(F)(F)F)cc4F)C(=O)O)cccc23)c1=O` [Compound 170], for which the IC50 on α4β1 integrin was more than 1000 nM; against α4β7 integrin, 10 to 100 nM.
For `CCN1CCC(C)(C(=O)N[C@@H](Cc2cccc3c(-n4c(=O)ccn(C)c4=O)cccc23)C(=O)O)CC1` [Compound 160], in that order: more than 1000 nM and 10 to 100 nM.
Turning to `Cn1ccc(=O)n(-c2cccc3c(C[C@H](NC(=O)c4c(F)cc(CN5CCC5)cc4F)C(=O)O)cccc23)c1=O` [Compound 33], the IC50 against α4β1 integrin and on α4β7 integrin was more than 1000 nM in each case.
Turning to `Cn1ccc(=O)n(-c2cccc3c(C[C@H](NC(=O)C(F)(F)Sc4ccc(Cl)cc4Cl)C(=O)O)cccc23)c1=O` [Compound 76], the IC50 at α4β1 integrin and against α4β7 integrin was more than 1000 nM in each case.
`Cn1c(CCN2CC(F)C2)cc(=O)n(-c2cccc3c(C[C@H](NC(=O)c4c(F)cc(N5CCOC[C@@H]5C(F)(F)F)cc4F)C(=O)O)cccc23)c1=O` [Compound 169]: the IC50 is more than 1000 nM on α4β1 integrin and less than 10 nM at α4β7 integrin.
Regarding `Cn1ccc(=O)n(-c2cccc3c(C[C@H](NC(=O)C(C)(C)c4cccc(-c5ccccc5)c4)C(=O)O)cccc23)c1=O` [Compound 176], the IC50 was more than 1000 nM against α4β1 integrin and 100 to 1000 nM against α4β7 integrin.
For `Cn1ccc(=O)n(-c2cccc3c(C[C@H](NC(=O)[C@@]4(C)CCCN(CC(F)(F)F)CC4)C(=O)O)cccc23)c1=O` [Compound 157], the IC50 was more than 1000 nM at α4β1 integrin and 10 to 100 nM at α4β7 integrin.
